Test results taken from patent USRE47193E1, “Selectively substituted quinoline compounds” (EISAI R&D MANAGEMENT CO., LTD., priority 2013, dated 2019).

System: Human TLR7/8
Assay: Human PBMC cell-based assay, TLR7/8 stimulus (RNA-Ig), cytokine ELISA
Settings: primary human PBMC assay, TLR7/8 potency; ligand not given; read-out: Human PBMCs IC50
Experimental: Human PBMC Cell-Based Assay. Human peripheral blood mononuclear cells (PBMC) were isolated from freshly-drawn heparinized (10 USP units/ml, Hospira, Lakeforest, Ill.) healthy donor whole blood by density gradient (Histopaque® 1077, Sigma, Inc., St. Louis, Mo.). Briefly, 25 ml blood was diluted with 15 ml PBS (without Ca^2+, Mg^2+) in a 50 ml conical tube, and 12 ml Histopaque was underlaid using a spinal needle. Tubes were centrifuged for 45 minutes at 1200 rpm (350×g), and PBMC were collected from the buffy coat. Cells were then washed twice in PBS, and red blood cells were lysed by suspension in 5 ml ammonium chloride solution (1× Red Blood Cell Lysis Buffer, eBioscience) for 5 minutes at room temperature. After a final wash in PBS, PBMC were resuspended at a final concentration of 2×10^6/ml in RPMI-1640 media with L-glutamine (Invitrogen) and supplemented with 25 mM HEPES (Mediatech, Inc, Manassas Va.), 10% fetal bovine serum (HyClone, Logan, Utah), and Penicillin-Streptomycin-Glutamine (Mediatech) and plated at 100 ul/well (2×10^5 cells/well) in tissue culture treated 96-well plates (Falcon).
Antagonist compounds solubilized and serial diluted in 100% DMSO were added in triplicate to cells to yield a final concentration of 0.1% DMSO (v/v). Hydroxychloroquine (Acros Organics) solubilized and serial diluted in PBS was added in triplicate to cells. PBMC were incubated with antagonist compounds or HCQ for 30 minutes at 37° C., 5% CO2 before adding various TLR agonist reagents in 100 ul complete media per well as follows (final concentrations indicated): R848 (Resiquimod; GLSynthesis, Worcester, Mass.) at 1 uM for TLR7 and TLR8, LPS (Sigma) at 10 ng/ml for TLR4, and CpG-2216 (InvivoGen) at 5 ug/ml for TLR9. To prepare a TLR7/8 agonist that mimics RNA-containing auto-antibody immune complexes in lupus patients, a 26-mer RNA with a sequence derived from human U1 snRNA stem loop IV [(sequence: […]-[…] (SEQ ID NO: 2) with phosphorothioate backbone] was synthesized (Dharmacon, Inc., Lafayette, Colo.), which has been shown previously to be a potent TLR7 and TLR8 agonist. This RNA molecule was diluted to 2.5 μM in serum-free RPMI, and mouse anti-human single stranded DNA monoclonal antibody (MAB3034, Millipore, Inc., Billerica, Mass.), which also cross-reacts with RNA, was added at a 1:25 dilution or at 1 ug/ml. The resulting “RNA-Ig” stimulus was incubated at room temperature for 15-30 minutes before adding to cells. PBMC were incubated with the various TLR agonists for 20 hours at 37° C., 5% CO2. Cell culture supernatants were collected, and levels of various human cytokines were assessed as indicated by standard ELISA procedure according to the manufacturer's recommended protocol (BD Biosciences, Inc., San Diego, Calif.). In a subsequent assay (Table 6) the ability of ER-899742 to block stimulation of normal PBMC by various TLR7/8 ligands, but not DNA-mediated activation of TLR9, was examined. In this assay cells were plated at 1×10^5 cells/well in 100 ul in 96-well plates.

Structure (SMILES)	IC50 [µM]
Cc1cc(C=O)cc(-c2ccc(C#N)c3ncccc23)c1 [ER-888200]	0.016
COc1ccc(NC[C@H]2CN(c3ccc(C#N)c4ncccc34)C[C@@H](C)O2)nc1 [ER-886855]	0.034
C[C@@H]1CN(c2ccc(C#N)c3ncccc23)C[C@H](C(=O)NC2(C#N)CC2)O1 [ER-898921]	0.302
CC1CN(c2ccc(C#N)c3ncccc23)CC(CN2C(C)CCCC2C)O1 (stereo not shown) [ER-886950]	0.114
Cc1cc(NC[C@H]2CN(c3ccc(C#N)c4ncccc34)C[C@@H](C)O2)n(C)n1 [ER-888977]	0.217
CCC1CCCCN1CC1CN(c2ccc(C#N)c3ncccc23)CC(C)O1 (stereo not shown) [ER-886958]	0.034
CC1CN(c2ccc(C#N)c3ncccc23)CC(C(=O)N2CCC(N(C)C)CC2)O1 (stereo not shown) [ER-899459]	0.016
CCOCC1CN(c2ccc(C#N)c3ncccc23)CC(C)O1 (stereo not shown) [ER-885807]	0.331
CC1CN(c2ccc(C#N)c3ncccc23)CC(C(=O)NCCF)O1 (stereo not shown) [ER-898914]	0.168
CC1CN(c2ccc(C#N)c3ncccc23)CC(CN2CCN(c3ccccn3)CC2)O1 (stereo not shown) [ER-888285]	0.014
CC1CN(c2ccc(C#N)c3ncccc23)CC(C(=O)NCC2CCCN2)O1 (stereo not shown) [ER-899414]	0.025
CC1CN(c2ccc(C#N)c3ncccc23)CC(C(N)=O)O1 (stereo not shown) [ER-895472]	0.161
CC1CN(c2ccc(C#N)c3ncccc23)CC(CN2CCC(NS(=O)(=O)c3ccc(F)cc3)CC2)O1 (stereo not shown) [ER-894150]	0.004
C[C@@H]1CN(c2ccc(C#N)c3ncccc23)C[C@H](C(=O)Nc2n[nH]cc2C#N)O1 [ER-899295]	0.032
C[C@@H]1CN(c2ccc(C#N)c3ncccc23)C[C@H](CN2CCNC(=O)[C@@H]2C)O1 [ER-894484]	0.174
CC1CN(c2ccc(C#N)c3ncccc23)CC(CN2CCCC2CO)O1 (stereo not shown) [ER-886866]	0.05
CC1CN(c2ccc(C#N)c3ncccc23)CC(C(=O)NCC2CN(C)CCO2)O1 (stereo not shown) [ER-898707]	0.002
CCc1cnc(NC[C@H]2CN(c3ccc(C#N)c4ncccc34)C[C@@H](C)O2)nc1 [ER-888701]	0.018
CC1CN(c2ccc(C#N)c3ncccc23)CC(CN2CC(N3CCNCC3)C2)O1 (stereo not shown) [ER-890119]	0.008
CC1CN(c2ccc(C#N)c3ncccc23)CC(C(=O)Nc2ncns2)O1 (stereo not shown) [ER-898922]	> 1
CC1CCN(CC2CN(c3ccc(C#N)c4ncccc34)CC(C)O2)C1 (stereo not shown) [ER-886868]	0.05
CC1CN(c2ccc(C#N)c3ncccc23)CC(C(=O)NC(CO)C(C)(C)C)O1 (stereo not shown) [ER-897940]	0.021
C[C@@H]1CCN(c2ccc(C#N)c3ncccc23)C[C@H](CN2CCC(N3CCCCC3)CC2)O1 [ER-889822]	0.025

Structure (SMILES)	IC50 [µM]
Cc1nn(C)cc1S(=O)(=O)NC1CCN(C[C@H]2CN(c3ccc(C#N)c4ncccc34)C[C@@H](C)O2)CC1 [ER-894160]	0.011
CNC(=O)[C@H]1CN(c2ccc(C#N)c3ncccc23)C[C@@H](C)O1 [ER-899431]	0.347
Cc1cc(CN2CCC(O)CC2)cc(-c2ccc(C#N)c3ncccc23)c1 [ER-888645]	0.047
C[C@@H]1CN(c2ccc(C#N)c3ncccc23)C[C@H](C(=O)NC2CC3CCC(C2)N3)O1 (stereo partly shown) [ER-899416]	0.431
CC1CN(c2ccc(C#N)c3ncccc23)CC(C(=O)NC2CCCNC2)O1 (stereo not shown) [ER-897967]	0.013
C[C@@H]1CN(c2ccc(C#N)c3ncccc23)C[C@H](C(=O)N[C@H]2CN(C)C[C@H]2F)O1 [ER-899332]	0.014
Cc1nsc(NC(=O)C2CN(c3ccc(C#N)c4ncccc34)CC(C)O2)n1 (stereo not shown) [ER-898923]	0.631
Cc1cc(CN2CCC(N(C)C)CC2)cc(-c2ccc(C#N)c3ncccc23)c1 [ER-888646]	0.003
C[C@@H]1CN(c2ccc(C#N)c3ncccc23)C[C@H](CN)O1 [ER-884884]	0.204
CC1CNCC(CNC(=O)C2CN(c3ccc(C#N)c4ncccc34)CC(C)O2)O1 (stereo not shown) [ER-899366]	0.001
CC1CN(c2ccc(C#N)c3ncccc23)CC(C(=O)NC2CC3(CNC3)C2)O1 (stereo not shown) [ER-899479]	0.002
CC1CN(c2ccc(C#N)c3ncccc23)CC(C(=O)NCC2CCCCN2)O1 (stereo not shown) [ER-899415]	0.013
CC1CN(c2ccc(C#N)c3ncccc23)CC(COc2ccccn2)O1 (stereo not shown) [ER-895324]	0.001
CC1CN(c2ccc(C#N)c3ncccc23)CC(C(=O)Nc2ccncc2)O1 (stereo not shown) [ER-899282]	0.034
COc1cccc(NC[C@H]2CN(c3ccc(C#N)c4ncccc34)C[C@@H](C)O2)n1 [ER-886859]	0.107
COCCNC(=O)C1CN(c2ccc(C#N)c3ncccc23)CC(C)O1 (stereo not shown) [ER-897385]	0.142
CC1CN(c2ccc(C#N)c3ncccc23)CC(CN2CC(N3CCC(N)CC3)C2)O1 (stereo not shown) [ER-892253]	0.066
Cc1nn(C)cc1S(=O)(=O)NC1CN(C[C@H]2CN(c3ccc(C#N)c4ncccc34)C[C@@H](C)O2)C1 [ER-894159]	0.042
CC1CN(c2ccc(C#N)c3ncccc23)CC(C(=O)NC2CCNC2)O1 (stereo not shown) [ER-897965]	0.01
CC1CN(c2ccc(C#N)c3ncccc23)CC(C(C)O)O1 (stereo not shown) [ER-895310]	0.034
CC1CN(c2ccc(C#N)c3ncccc23)CC(CN2CCC(C3CCCCC3)CC2)O1 (stereo not shown) [ER-888479]	0.091
CNCCNC(=O)C1CN(c2ccc(C#N)c3ncccc23)CC(C)O1 (stereo not shown) [ER-899140]	0.011
CC1CN(c2ccc(C#N)c3ncccc23)CC(C(=O)NCC2CCCCN2C)O1 (stereo not shown) [ER-899293]	0.013

Structure (SMILES)	IC50 [µM]
CC1CCCC(NCC2CN(c3ccc(C#N)c4ncccc34)CC(C)O2)C1 (stereo not shown) [ER-887146]	0.038
C[C@@H]1CN(c2ccc(C#N)c3ncccc23)C[C@H](CN2C[C@@H](C)O[C@@H](C)C2)O1 [ER-888204]	0.022
CC1CN(c2ccc(C#N)c3ncccc23)CC(CN2CCC(N3CCCC3)C2)O1 (stereo not shown) [ER-889571]	1
Cc1cc(CN2CCN(C)CC2)cc(-c2ccc(C#N)c3ncccc23)c1 [ER-888647]	0.012
CC1CN(c2ccc(C#N)c3ncccc23)CC(C(=O)NCC2CNCCO2)O1 (stereo not shown) [ER-899278]	0.001
CC(=O)N[C@H]1CCN(C[C@H]2CN(c3ccc(C#N)c4ncccc34)C[C@@H](C)O2)C1 [ER-894546]	0.069
C[C@@H]1CN(c2ccc(C#N)c3ncccc23)C[C@H](C(=O)N2CC3(CCCNC3)C2)O1 [ER-899021]	0.005
CC1CN(c2ccc(C#N)c3ncccc23)CC(C(=O)NCCC(O)C(F)(F)F)O1 (stereo not shown) [ER-899160]	0.252
C[C@H]1CN(c2ccc(C#N)c3ncccc23)C[C@@H](CCl)O1 [ER-886134]	0.277
CC1CN(c2ccc(C#N)c3ncccc23)CC(CN2CCC(NC(=O)C(C)(C)C)CC2)O1 (stereo not shown) [ER-889746]	0.073
CC1CN(c2ccc(C#N)c3ncccc23)CC(C(=O)NC2CCCCC2O)O1 (stereo not shown) [ER-897938]	0.016
C[C@@H]1CN(c2ccc(C#N)c3ncccc23)C[C@H](CN2CC(NS(C)(=O)=O)C2)O1 [ER-894154]	0.143
CCn1c(C)nc2cc(NC[C@H]3CN(c4ccc(C#N)c5ncccc45)C[C@@H](C)O3)ccc21 [ER-886609]	0.004
CC(CO)NC(=O)C1CN(c2ccc(C#N)c3ncccc23)CC(C)O1 (stereo not shown) [ER-897447]	0.1
CCCCCC(=O)NC1CCN(CC2CN(c3ccc(C#N)c4ncccc34)CC(C)O2)CC1 (stereo not shown) [ER-889744]	0.008
C[C@@H]1CN(c2ccc(C#N)c3ncccc23)C[C@H](CNc2cccc(-c3ccccc3)n2)O1 [ER-887589]	0.036
C[C@@H]1CN(c2ccc(C#N)c3ncccc23)C[C@H](CNc2ccc3cccnc3n2)O1 [ER-888289]	0.011
C[C@@H]1CN(c2ccc(C#N)c3ncccc23)C[C@H](C(=O)N2CCC(N)CC2)O1 [ER-899588]	0.007
Cc1ccc(OC[C@H]2CN(c3ccc(C#N)c4ncccc34)C[C@@H](C)O2)cc1 [ER-886516]	0.056
CC1CN(CC2CN(c3ccc(C#N)c4ncccc34)CC(C)O2)C(C)CN1 (stereo not shown) [ER-887260]	0.004
CC1CCC(NCC2CN(c3ccc(C#N)c4ncccc34)CC(C)O2)CC1 (mixture of isomers) [ER-887442]	0.047
